Test results taken from PubChem BioAssay AID330 (DTP/NCI, 2004).
“And” between values parts separate entries of the source, which are not always exact repeats. Identical values can stand only once. Toxic doses and inconclusive results are not listed.

Tested on: P388 leukemia ip, CD2F1 mice, survival T/C
Experiment: NCI In Vivo Anticancer Drug Screen. Data for tumor model P388 Leukemia (intraperitoneal) in CD2F1 (CDF1) mice
Details: endpoint: median survival time, higher = longer survival
Summary of the method: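 Mice carrying the transplanted tumor received test compound or vehicle. Survival was recorded in each group, and the value is the treated-group measurement divided by that of the vehicle-treated control group.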

[1] = dose: 12.5 mg/kg/injection, schedule: Q01DX005 (ip), vehicle: saline with Tween-80
[2] = dose: 25.0 mg/kg/injection, schedule: Q01DX005 (ip), vehicle: saline with Tween-80
[3] = dose: 100.0 mg/kg/injection, schedule: Q01DX005 (ip), vehicle: saline with Tween-80
[4] = dose: 200.0 mg/kg/injection, schedule: Q01DX005 (ip), vehicle: saline with Tween-80
[5] = dose: 50.0 mg/kg/injection, schedule: Q01DX009 (ip), vehicle: saline with Tween-80
[6] = dose: 100.0 mg/kg/injection, schedule: Q01DX009 (ip), vehicle: saline with Tween-80
[7] = dose: 200.0 mg/kg/injection, schedule: Q01DX009 (ip), vehicle: saline with Tween-80

In the case of Cc1cc2nc(CC(O)(C(F)(F)F)C(F)(F)F)oc2cc1C, the T/C (dose: 100.0 mg/kg/injection, schedule: Q04DX003 (ip), vehicle: saline with Tween-80) is reported as 95 % of control, the T/C (dose: 200.0 mg/kg/injection, schedule: Q04DX003 (ip), vehicle: saline with Tween-80) is reported as 95 % of control and the T/C (dose: 400.0 mg/kg/injection, schedule: Q04DX003 (ip), vehicle: saline with Tween-80) is reported as 100 % of control.
With NC(=O)c1cnc2nc1NCCCCCCC2 the T/C (dose: 100.0 mg/kg/injection, schedule: Q04DX002 (ip), vehicle: Klucel (hydroxypropylcellulose) (HPC)) was 100 % of control, the T/C (dose: 200.0 mg/kg/injection, schedule: Q04DX002 (ip), vehicle: Klucel (hydroxypropylcellulose) (HPC)) was 98 % of control and the T/C (dose: 400.0 mg/kg/injection, schedule: Q04DX002 (ip), vehicle: Klucel (hydroxypropylcellulose) (HPC)) was 90 % of control.
CNC1=CC(=S)NC(C)(C)C1 was tested, and the T/C (dose: 50.0 mg/kg/injection, schedule: Q01DX009 (ip), vehicle: saline) was 100 % of control, the T/C (dose: 100.0 mg/kg/injection, schedule: Q01DX009 (ip), vehicle: saline) was 92 % of control and the T/C (dose: 200.0 mg/kg/injection, schedule: Q01DX009 (ip), vehicle: saline) was 92 % of control.
In the case of N#CCCN(C(=O)Nc1ccccc1)c1ccccc1, the T/C (dose: 50.0 mg/kg/injection, schedule: Q01DX009 (ip), vehicle: Klucel (hydroxypropylcellulose) (HPC)) is reported as 103 % of control, the T/C (dose: 100.0 mg/kg/injection, schedule: Q01DX009 (ip), vehicle: Klucel (hydroxypropylcellulose) (HPC)) is reported as 107 % of control and the T/C (dose: 200.0 mg/kg/injection, schedule: Q01DX009 (ip), vehicle: Klucel (hydroxypropylcellulose) (HPC)) is reported as 107 % of control.
For CC1=CC(C)=C(C#N)C2=S=C(c3ccccc3)C(=O)N12, the T/C (dose: 6.25 mg/kg/injection, schedule: Q01DX005 (ip), vehicle: saline with Tween-80) was 97 % of control, the T/C [1] was 94 % of control and the T/C [2] was 94 % of control. For the same compound, the T/C [3] was 88 % of control and the T/C [4] was 88 % of control.
For COC(=O)C(CSC(c1ccccc1)(c1ccccc1)c1ccccc1)NC(=O)CCNC(=O)OCc1ccccc1 (configuration not stated), the T/C (dose: 6.25 mg/kg/injection, schedule: Q01DX009 (ip), vehicle: other) was 103 % of control, the T/C (dose: 12.5 mg/kg/injection, schedule: Q01DX009 (ip), vehicle: other) was 97 % of control and the T/C (dose: 25.0 mg/kg/injection, schedule: Q01DX009 (ip), vehicle: other) was 94 % of control. The T/C (dose: 50.0 mg/kg/injection, schedule: Q01DX009 (ip), vehicle: other) was 88 % of control.
In the case of CN1c2ccccc2C(C)(C)C12Cc1c(N)ncc(C#N)c1N2 (configuration not stated), the T/C [5] is reported as 91 % of control, the T/C [6] is reported as 88 % of control and the T/C [7] is reported as 93 % of control.
For COc1cccc2cc(-n3nnc4cc([N+](=O)[O-])ccc43)c(=O)oc12, the T/C [1] was 95 % of control, the T/C [2] was 93 % of control and the T/C (dose: 50.0 mg/kg/injection, schedule: Q01DX005 (ip), vehicle: saline with Tween-80) was 92 % of control and 95 % of control. The T/C [3] was 97 % of control and the T/C [4] was 98 % of control.
With NCC(c1ccccc1)C1CCCCC1 (configuration not stated) the T/C (dose: 12.5 mg/kg/injection, schedule: Q01DX005 (ip), vehicle: saline) was 103 % of control, the T/C (dose: 25.0 mg/kg/injection, schedule: Q01DX005 (ip), vehicle: saline) was 94 % of control and the T/C (dose: 50.0 mg/kg/injection, schedule: Q01DX005 (ip), vehicle: saline) was 100 % of control and 95 % of control.
For O=C(O)C(=O)O.O=C([O-])C(=O)[O-].O=C([O-])C(=O)[O-].[NH-]CC[NH-].[NH-]CC[NH-].[NH-]CC[NH-].[Ru+4].[Ru+5], the T/C (dose: 25.0 mg/kg/injection, schedule: Q04DX003 (ip), vehicle: water) was 117 % of control and the T/C (dose: 50.0 mg/kg/injection, schedule: Q04DX003 (ip), vehicle: water) was 151 % of control.
In the case of CC(N)C(=O)NC(C)P(=O)(O)O (configuration not stated), the T/C [5] is reported as 102 % of control, the T/C [6] is reported as 101 % of control and the T/C [7] is reported as 101 % of control.
In the case of CN1C(=O)NC(c2ccc(Cl)cc2)(c2ccc(Cl)cc2)C1=O, the T/C (dose: 5.0 mg/kg/injection, schedule: Q04DX003 (ip), vehicle: other) is reported as 105 % of control, the T/C (dose: 10.0 mg/kg/injection, schedule: Q04DX003 (ip), vehicle: other) is reported as 104 % of control and the T/C (dose: 20.0 mg/kg/injection, schedule: Q04DX003 (ip), vehicle: other) is reported as 107 % of control. For the same compound, the T/C (dose: 25.0 mg/kg/injection, schedule: Q04DX003 (ip), vehicle: other) was 101 % of control, the T/C (dose: 40.0 mg/kg/injection, schedule: Q04DX003 (ip), vehicle: other) was 118 % of control and the T/C (dose: 50.0 mg/kg/injection, schedule: Q04DX003 (ip), vehicle: other) was 119 % of control.
In the case of Nc1nc2[nH]ccc2c(=O)[nH]1, the T/C (dose: 12.5 mg/kg/injection, schedule: Q01DX009 (ip), vehicle: saline with Tween-80) is reported as 95 % of control, the T/C (dose: 25.0 mg/kg/injection, schedule: Q01DX009 (ip), vehicle: saline with Tween-80) is reported as 94 % of control and the T/C [5] is reported as 104 % of control. For the same compound, the T/C [6] was 113 % of control.
